Reference: patent US6964960B2, “Indoloquinazolinones” (Novartis AG, priority 2000, dated 2005)

Columns and labels:
[1] = test system: pentobarbital-anesthetized rabbit myocardial infarction; assay: pentobarbital-anesthetized rabbit myocardial infarction model; assay type: in vivo
Source text: The cardioprotective activity of the agents of the invention is confirmed in vivo e.g. in a model of pentobarbital-anesthetized rabbit myocardial infarction where the infarct size is reduced upon administration of about 1 to about 100 μmol/kg [For the model, see for example Ytrehus K. et al., Am. J. Physiol 267 (Heart Circ. Physiol. 36): H2383-2390, 1994 and Haessler R. et al., Cardiov. Res. 28: 1574-1580, 1994; for the cardioprotective effect of PARP inhibitors as evidenced in this model, see for example Thiemermann C. et al., Proc. Natl. Acad. Sci. USA 94: 679-683, 1997].

| melting point | Structure (SMILES) | reduction of infarct size ([1]; highest dose tested (70 μmol/kg i.v., 22.1 mg/kg of the base), single injection five minutes before reperfusion) | effect on infarct size ([1]; single injection at 3-70 μmol/kg i.v. (0.95-22.1 mg/kg i.v. of the base) five minutes before reperfusion) |
| --- | --- | --- | --- |
| – | O=c1[nH]c2c(Cc3nnn[nH]3)c3ccccc3n2c2ccccc12 [Example 22, 7-(1 H-Tetrazole-5-ylmethyl)-6H-indolo[1,2-a]quinazoline-5-one] | 60% | dose-dependently reduces infarct size |
| 248 to 252 °C | O=c1[nH]c2c(CCO)c3ccccc3n2c2ccccc12 [Example 61, 7-(2-Hydroxy-ethyl)-6H-indolo[1,2-a]quinazoline-5-one] | – | – |
| 245 to 260 °C | CCc1c2ccccc2n2c1[nH]c(=O)c1ccccc12 [Example 1, 7-Ethyl-6H-indolo[1,2-a]quinazoline-5-one] | – | – |
| 165 to 195 °C (dec.) | CCC(N)Cc1c2ccccc2n2c1[nH]c(=O)c1ccccc12 (stereo not shown) [Example 65, 7-(2-Amino-butyl)-6H-indolo[1,2-a]quinazoline-5-one] | – | – |
| > 300 °C | NCCc1c2ccccc2n2c1[nH]c(=O)c1ccccc12 [Example 64, 7-(2-Amino-ethyl)-6H-indolo[1,2-a]quinazoline-5-one] | – | – |
| 196 to 198 °C | Cl.Cl.O=c1[nH]c2c(CCNCCN3CCOCC3)c3ccccc3n2c2ccccc12 | – | – |
